Assay results from US9040545B2, “Heterocyclyl pyrazolopyrimidine analogues as selective JAK inhibitors” (Cellzome Limited, priority 2010, dated 2015).

What was measured:
JAK2 = biological target: T1, JAK2 (Homo sapiens, UniProt O60674); experiment: Kinobeads assay, JAK2; format: binding; conditions: mixed Molt4/Ramos lysate, read-out: Inhibition values (IC50) JAK2
T1 construct: endogenous in cells; host or cells: mixed Molt4/Ramos lysate (1:2)
Summary of the method: (§1)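 IC50 values come from dose-response curves of JAK2/JAK3 captured on immobilized aminopyrido-pyrimidine beads, quantified by antibody dot blot with infrared read-out. Compounds (1:3 series, 9 steps, from 5 mM DMSO stock) competed for 3 h in the cold with mixed Molt4/Ramos lysate (1:2, 10 mg/mL protein).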

JAK3 = biological target: T2, JAK3 (Homo sapiens, UniProt P52333); experiment: Kinobeads assay, JAK3; format: binding; conditions: mixed Molt4/Ramos lysate, read-out: Inhibition values (IC50) JAK3
T2 construct: endogenous in cells; host or cells: mixed Molt4/Ramos lysate (1:2)
T2 sequence (P52333 1-1124): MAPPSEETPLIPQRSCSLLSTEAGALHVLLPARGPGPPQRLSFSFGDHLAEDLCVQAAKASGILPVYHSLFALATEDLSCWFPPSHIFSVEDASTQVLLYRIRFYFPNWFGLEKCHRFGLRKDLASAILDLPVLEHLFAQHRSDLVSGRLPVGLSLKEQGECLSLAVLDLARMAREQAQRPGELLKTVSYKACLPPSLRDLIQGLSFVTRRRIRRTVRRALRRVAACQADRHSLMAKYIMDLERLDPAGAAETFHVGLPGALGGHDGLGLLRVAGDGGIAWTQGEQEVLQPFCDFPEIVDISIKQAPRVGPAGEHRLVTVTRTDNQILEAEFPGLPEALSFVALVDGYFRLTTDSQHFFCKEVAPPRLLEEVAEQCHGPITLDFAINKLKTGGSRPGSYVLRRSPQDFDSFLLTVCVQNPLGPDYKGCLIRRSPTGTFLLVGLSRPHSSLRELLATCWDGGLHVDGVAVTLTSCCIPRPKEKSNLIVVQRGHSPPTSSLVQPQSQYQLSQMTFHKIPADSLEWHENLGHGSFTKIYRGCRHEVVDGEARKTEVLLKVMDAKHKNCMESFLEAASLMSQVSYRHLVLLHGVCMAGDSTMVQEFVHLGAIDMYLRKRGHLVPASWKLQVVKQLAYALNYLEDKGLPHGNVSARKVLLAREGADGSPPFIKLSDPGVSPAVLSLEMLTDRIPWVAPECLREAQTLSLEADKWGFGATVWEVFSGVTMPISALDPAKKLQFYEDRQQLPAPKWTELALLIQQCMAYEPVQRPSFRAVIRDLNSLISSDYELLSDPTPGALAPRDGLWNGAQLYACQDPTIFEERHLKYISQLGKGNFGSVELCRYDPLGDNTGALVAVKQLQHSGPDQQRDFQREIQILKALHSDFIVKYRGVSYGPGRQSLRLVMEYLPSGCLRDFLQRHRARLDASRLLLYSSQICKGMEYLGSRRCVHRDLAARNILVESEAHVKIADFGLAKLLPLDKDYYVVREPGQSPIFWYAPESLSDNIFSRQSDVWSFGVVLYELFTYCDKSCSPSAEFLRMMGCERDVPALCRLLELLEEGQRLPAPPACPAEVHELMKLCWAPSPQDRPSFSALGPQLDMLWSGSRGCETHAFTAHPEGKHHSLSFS
Summary of the method: as §1

T1 sequence (O60674 whole entry): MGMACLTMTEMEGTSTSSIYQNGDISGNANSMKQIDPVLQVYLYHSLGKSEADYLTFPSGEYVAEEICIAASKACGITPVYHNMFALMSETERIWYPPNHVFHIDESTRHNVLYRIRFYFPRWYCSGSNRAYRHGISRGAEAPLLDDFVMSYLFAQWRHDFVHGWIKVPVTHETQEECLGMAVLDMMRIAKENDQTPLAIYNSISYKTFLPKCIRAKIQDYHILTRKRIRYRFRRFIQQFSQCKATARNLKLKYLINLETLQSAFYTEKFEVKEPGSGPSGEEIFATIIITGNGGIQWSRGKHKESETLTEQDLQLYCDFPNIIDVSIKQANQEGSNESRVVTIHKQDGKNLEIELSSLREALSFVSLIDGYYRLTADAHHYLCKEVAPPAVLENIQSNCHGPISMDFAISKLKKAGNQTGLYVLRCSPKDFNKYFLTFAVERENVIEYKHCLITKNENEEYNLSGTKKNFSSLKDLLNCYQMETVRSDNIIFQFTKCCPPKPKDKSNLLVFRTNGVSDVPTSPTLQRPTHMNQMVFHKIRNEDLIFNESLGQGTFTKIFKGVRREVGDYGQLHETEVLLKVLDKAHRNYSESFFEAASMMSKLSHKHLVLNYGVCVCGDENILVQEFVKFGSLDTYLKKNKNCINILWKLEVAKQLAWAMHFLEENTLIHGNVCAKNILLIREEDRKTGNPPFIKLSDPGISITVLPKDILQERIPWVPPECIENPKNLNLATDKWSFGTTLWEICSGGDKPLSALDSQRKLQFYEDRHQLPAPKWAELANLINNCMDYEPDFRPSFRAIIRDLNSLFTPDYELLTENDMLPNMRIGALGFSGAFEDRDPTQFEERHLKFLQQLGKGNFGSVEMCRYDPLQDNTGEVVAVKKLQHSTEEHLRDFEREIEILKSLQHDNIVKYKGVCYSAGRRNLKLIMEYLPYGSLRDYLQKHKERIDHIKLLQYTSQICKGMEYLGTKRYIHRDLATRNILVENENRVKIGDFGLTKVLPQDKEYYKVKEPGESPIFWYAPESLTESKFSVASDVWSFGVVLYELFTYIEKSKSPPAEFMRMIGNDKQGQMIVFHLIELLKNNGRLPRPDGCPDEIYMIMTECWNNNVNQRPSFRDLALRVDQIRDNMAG

Compound | IC50 (JAK2) [µM] | IC50 (JAK3) [nM]
Cn1cc(Nc2ncc3cnn(Cc4cc(N5CCOCC5=O)cc(F)c4F)c3n2)cn1 [Example 53, 4-(3,4-Difluoro-5-((6-((1-methyl-1H-pyrazol-4-yl)amino)-1H-pyrazolo[3,4-d]pyrimidin-1-yl)methyl)phenyl)morpholin-3-one] | ≥ 10 | < 100
O=C1CNCCN1c1cc(F)c(F)c(Cn2ncc3cnc(Nc4cnn(CCO)c4)nc32)c1 [Example 72, 1-(3,4-Difluoro-5-((6-((1-(2-hydroxyethyl)-1H-pyrazol-4-yl)amino)-1H-pyrazolo[3,4-d]pyrimidin-1-yl)methyl)phenyl)piperazin-2-one] | ≥ 10 | < 100
OCCn1cc(Nc2ncc3cnn(Cc4c(F)ccc(N5CCOCC5)c4F)c3n2)cn1 [Example 82, 2-(4-((1-(2,6-Difluoro-3-morpholinobenzyl)-1H-pyrazolo[3,4-d]pyrimidin-6-yl)amino)-1H-pyrazol-1-yl)ethanol] | ≥ 10 | < 100
Cn1cc(Nc2ncc3cnn(Cc4cccc(N5CCOCC5O)c4)c3n2)cn1 (centres unmarked) [Example 88, 4-(3-((6-((1-Methyl-1H-pyrazol-4-yl)amino)-1H-pyrazolo[3,4-d]pyrimidin-1-yl)methyl)phenyl)morpholin-3-ol] | ≥ 10 | 100 to 1000
Cn1cc(Nc2ncc3cnn(Cc4cc(N5CCNCC5=O)cc(F)c4F)c3n2)cn1 [Example 71, 1-(3,4-Difluoro-5-((6-((1-methyl-1H-pyrazol-4-yl)amino)-1H-pyrazolo[3,4-d]pyrimidin-1-yl)methyl)phenyl)piperazin-2-one] | ≥ 10 | < 100
O=C1CNCCN1c1cccc(Cn2ncc3cnc(Nc4cnn(CCO)c4)nc32)c1 [Example 57, 1-(3-((6-((1-(2-Hydroxyethyl)-1H-pyrazol-4-yl)amino)-1H-pyrazolo[3,4-d]pyrimidin-1-yl)methyl)phenyl)piperazin-2-one] | ≥ 10 | < 100
O=C1COCCN1c1cc(F)c(F)c(Cn2ncc3cnc(Nc4cnn(CCO)c4)nc32)c1 [Example 59, 4-(3,4-Difluoro-5-((6-((1-(2-hydroxyethyl)-1H-pyrazol-4-yl)amino)-1H-pyrazolo[3,4-d]pyrimidin-1-yl)methyl)phenyl)morpholin-3-one] | ≥ 10 | < 100
OCCn1cc(Nc2ncc3cnn(Cc4cc(N5CCNCC5)cc(F)c4F)c3n2)cn1 [Example 78, 2-(4-((1-(2,3-Difluoro-5-(piperazin-1-yl)benzyl)-1H-pyrazolo[3,4-d]pyrimidin-6-yl)amino)-1H-pyrazol-1-yl)ethanol] | 1 to 10 | < 100
CN(C)CCCn1cc(Nc2ncc3cnn(Cc4cccc(N5CCOCC5)c4F)c3n2)cn1 [Example 43, N-(1-(3-(Dimethylamino)propyl)-1H-pyrazol-4-yl)-1-(2-fluoro-3-morpholinobenzyl)-1H-pyrazolo[3,4-d]pyrimidin-6-amine] | 1 to 10 | < 100
Cn1cc(Nc2ncc3cnn(Cc4cccc(N5CCNCC5)c4F)c3n2)cn1 [Example 67, 1-(2-Fluoro-3-(piperazin-1-yl)benzyl)-N-(1-methyl-1H-pyrazol-4-yl)-1H-pyrazolo[3,4-d]pyrimidin-6-amine] | 1 to 10 | < 100

Now from value to compound:

IC50 (JAK2) [µM] | IC50 (JAK3) [nM] | Compound
1 to 10 | < 100 | Cn1cc(Nc2ncc3cnn(Cc4cc(F)cc(N5CCNCC5=O)c4)c3n2)cn1 [Example 64, 1-(3-Fluoro-5-((6-((1-methyl-1H-pyrazol-4-yl)amino)-1H-pyrazolo[3,4-d]pyrimidin-1-yl)methyl)phenyl)piperazin-2-one]
1 to 10 | < 100 | OCCn1cc(Nc2ncc3cnn(Cc4cc(F)cc(N5CCOCC5)c4)c3n2)cn1 [Example 51, 2-(4-((1-(3-Fluoro-5-morpholinobenzyl)-1H-pyrazolo[3,4-d]pyrimidin-6-yl)amino)-1H-pyrazol-1-yl)ethanol]
1 to 10 | < 100 | Cn1cc(Nc2ncc3cnn(Cc4cc(F)cc(N5CCOCC5)c4)c3n2)cn1 [Example 49, 1-(3-Fluoro-5-morpholinobenzyl)-N-(1-methyl-1H-pyrazol-4-yl)-1H-pyrazolo[3,4-d]pyrimidin-6-amine]
1 to 10 | < 100 | Cn1cc(Nc2ncc3cnn(Cc4c(F)c(F)cc(N5CCOCC5=O)c4F)c3n2)cn1 [Example 61, 4-(2,4,5-Trifluoro-3-((6-((1-methyl-1H-pyrazol-4-yl)amino)-1H-pyrazolo[3,4-d]pyrimidin-1-yl)methyl)phenyl)morpholin-3-one]
1 to 10 | < 100 | O=C1CNCCN1c1cccc(Cn2ncc3cnc(Nc4cnn(CCO)c4)nc32)c1F [Example 55, 1-(2-Fluoro-3-((6-((1-(2-hydroxyethyl)-1H-pyrazol-4-yl)amino)-1H-pyrazolo[3,4-d]pyrimidin-1-yl)methyl)phenyl)piperazin-2-one]
1 to 10 | < 100 | c1cc(Cn2ncc3cnc(Nc4cnn(CC5CCCNC5)c4)nc32)cc(N2CCOCC2)c1 (centres unmarked) [Example 48, 1-(3-Morpholinobenzyl)-N-(1-(piperidin-3-ylmethyl)-1H-pyrazol-4-yl)-1H-pyrazolo[3,4-d]pyrimidin-6-amine]
1 to 10 | < 100 | Cn1cc(Nc2ncc3cnn(Cc4cc(F)cc(N5CCOCC5=O)c4)c3n2)cn1 [Example 52, 4-(3-Fluoro-5-((6-((1-methyl-1H-pyrazol-4-yl)amino)-1H-pyrazolo[3,4-d]pyrimidin-1-yl)methyl)phenyl)morpholin-3-one]
1 to 10 | < 100 | Fc1cc(N2CCOCC2)c(F)c(Cn2ncc3cnc(Nc4cn[nH]c4)nc32)c1F [Example 81, N-(1H-Pyrazol-4-yl)-1-(2,3,6-trifluoro-5-morpholinobenzyl)-1H-pyrazolo[3,4-d]pyrimidin-6-amine]
1 to 10 | < 100 | Cn1cc(Nc2ncc3cnn(Cc4c(F)ccc(N5CCOCC5=O)c4F)c3n2)cn1 [Example 69, 4-(2,4-Difluoro-3-((6-((1-methyl-1H-pyrazol-4-yl)amino)-1H-pyrazolo[3,4-d]pyrimidin-1-yl)methyl)phenyl)morpholin-3-one]
0.1 to 1 | < 100 | Cn1cc(Nc2ncc3cnn(Cc4cc(F)cc(C(=O)N5CCOCC5)c4)c3n2)cn1 [Example 79, (3-Fluoro-5-((6-((1-methyl-1H-pyrazol-4-yl)amino)-1H-pyrazolo[3,4-d]pyrimidin-1-yl)methyl)phenyl)(morpholino)methanone]
1 to 10 | < 100 | CN(C)CCCn1cc(Nc2ncc3cnn(Cc4cccc(N5CCOCC5=O)c4F)c3n2)cn1 [Example 50, 4-(3-((6-((1-(3-(Dimethylamino)propyl)-1H-pyrazol-4-yl)amino)-1H-pyrazolo[3,4-d]pyrimidin-1-yl)methyl)-2-fluorophenyl)morpholin-3-one]
1 to 10 | < 100 | CN(C)CCCn1cc(Nc2ncc3cnn(Cc4c(F)c(F)cc(N5CCOCC5)c4F)c3n2)cn1 [Example 42, N-(1-(3-(Dimethylamino)propyl)-1H-pyrazol-4-yl)-1-(2,3,6-trifluoro-5-morpholinobenzyl)-1H-pyrazolo[3,4-d]pyrimidin-6-amine]
